Data as given in ChEMBL document CHEMBL3880382, “TRH-like peptide derivatives as inhibitors of the TRH-degrading ectoenzyme” (2010).
Each block holds one molecule with its values, some of them ahead of it. Non-standard residues stand in square brackets, D forms with d. Residues, ends and D or L forms follow the SMILES beside them. hPhe = N[C@@H](CCc1ccccc1)C(=O)O; 2Thi = N[C@@H](Cc1cccs1)C(=O)O; pGlu = O=C1CC[C@@H](C(=O)O)N1; Phg = N[C@H](C(=O)O)c1ccccc1; Pip = O=C(O)[C@@H]1CCCCN1; Nva = CCC[C@H](N)C(=O)O

Experiments:
[1] = target: T1, Thyrotropin releasing hormone degrading enzyme (Sus scrofa) (UniProt A0A287AP33); experiment: Substrate activity at pig brain TRH-DE assessed as rate of hydrolysis at 1 mM incubated for 18 hrs by HPLC analysis
[2] = target: T1, Thyrotropin releasing hormone degrading enzyme (Sus scrofa); experiment: Substrate activity at pig brain TRH-DE assessed as Vmax to Km ratio
[3] = target: T1, Thyrotropin releasing hormone degrading enzyme (Sus scrofa); experiment: Inhibition of pig brain TRH-DE at 1 mM using Glp-His-ProAMC as substrate by DPP-4-based continuous fluorometric method
[4] = substrate: Cc1cc(=O)oc2cc(NC(=O)[C@@H]3CCCN3C(=O)[C@H](Cc3cnc[nH]3)NC(=O)[C@@H]3CCC(=O)N3)ccc12; experiment: (§1) Substrate activity at pig brain TRH-DE assessed as Vmax after 18 hrs by HPLC analysis; conditions: Sus scrofa
[5] = substrate: NC(=O)[C@@H]1CCCN1C(=O)[C@H](Cc1c[nH]cn1)NC(=O)[C@@H]1CCC(=O)N1; experiment: as §1; conditions: Sus scrofa
[6] = substrate: NC(=O)[C@@H]1CCCN1C(=O)[C@H](Cc1ccc(O)cc1)NC(=O)[C@@H]1CCC(=O)N1; experiment: as §1; conditions: Sus scrofa
[7] = substrate: NC(=O)[C@@H]1CCCN1C(=O)[C@H](Cc1ccccc1)NC(=O)[C@@H]1CCC(=O)N1; experiment: as §1; conditions: Sus scrofa
[8] = substrate: NC(=O)[C@@H]1CCCN1C(=O)[C@H](Cc1cccs1)NC(=O)[C@@H]1CCC(=O)N1; experiment: as §1; conditions: Sus scrofa
[9] = substrate: O=C1CC[C@@H](C(=O)N[C@@H](Cc2cnc[nH]2)C(=O)N2CCC[C@H]2C(=O)O)N1; experiment: as §1; conditions: Sus scrofa
[10] = substrate: Cc1cc(=O)oc2cc(NC(=O)[C@@H]3CCCN3C(=O)[C@H](Cc3cnc[nH]3)NC(=O)[C@@H]3CCC(=O)N3)ccc12; experiment: (§2) Substrate activity at pig brain TRH-DE assessed as Km by discontinuous fluorometric method; conditions: Sus scrofa
[11] = substrate: NC(=O)[C@@H]1CCCN1C(=O)[C@H](Cc1c[nH]cn1)NC(=O)[C@@H]1CCC(=O)N1; experiment: as §2; conditions: Sus scrofa
[12] = substrate: NC(=O)[C@@H]1CCCN1C(=O)[C@H](Cc1ccc(O)cc1)NC(=O)[C@@H]1CCC(=O)N1; experiment: as §2; conditions: Sus scrofa
[13] = substrate: NC(=O)[C@@H]1CCCN1C(=O)[C@H](Cc1ccccc1)NC(=O)[C@@H]1CCC(=O)N1; experiment: as §2; conditions: Sus scrofa
[14] = substrate: NC(=O)[C@@H]1CCCN1C(=O)[C@H](Cc1cccs1)NC(=O)[C@@H]1CCC(=O)N1; experiment: as §2; conditions: Sus scrofa
[15] = substrate: O=C1CC[C@@H](C(=O)N[C@@H](Cc2cnc[nH]2)C(=O)N2CCC[C@H]2C(=O)O)N1; experiment: as §2; conditions: Sus scrofa

Molecule: CSCC[C@H](NC(=O)[C@@H]1CCC(=O)N1)C(=O)N1CCC[C@H]1C(N)=O ([pGlu]-Met-Pro-NH2)
Activity [1]: 0.21 U/mg

Molecule: NC(=O)[C@@H]1CCCN1C(=O)[C@H](Cc1c[nH]c2ccccc12)NC(=O)[C@@H]1CCC(=O)N1 ([pGlu]-Trp-Pro-NH2)
inhibition [3]: 71%

Molecule: NC(=O)[C@@H]1CCCN1C(=O)[C@H](Cc1ccc(O)cc1)NC(=O)[C@@H]1CCC(=O)N1 ([pGlu]-Tyr-Pro-NH2)
Activity [1]: 0.66 U/mg
Vmax/Km [2]: 0.05 U/mg/µM

Molecule: CC(C)[C@H](NC(=O)[C@@H]1CCC(=O)N1)C(=O)N1CCC[C@H]1C(N)=O ([pGlu]-Val-Pro-NH2)
Activity [1]: 0.05 U/mg

Molecule: NC(=O)[C@@H]1CCCN1C(=O)[C@@H]1CCCCN1C(=O)[C@@H]1CCC(=O)N1 ([pGlu]-[Pip]-Pro-NH2)
inhibition [3]: 40%

Molecule: NC(=O)C[C@@H](NC(=O)[C@@H]1CCC(=O)N1)C(=O)N1CCC[C@H]1C(N)=O ([pGlu]-[dN]-Pro-NH2)
inhibition [3]: 2%

Molecule: NC(=O)[C@@H]1CCCN1C(=O)[C@H](CCc1ccccc1)NC(=O)[C@@H]1CCC(=O)N1 ([pGlu]-[hPhe]-Pro-NH2)
Activity [1]: 0.05 U/mg

B1: Thyrotropin releasing hormone degrading enzyme (Sus scrofa), A0A287AP33 (protein)
chain: MALDGERGEQEEEKKKKKKKKKRKKKKEEEGAKKSSSPFVATMGENDAALRAGGRGLSDPWADSVGVRPRTTERHITVHKRLVLAFAVSIVALLAVTMLAVLLSLRFDECGASIPPGADGGPAGFPARGGNESLPGSSRRDHHAGGDSSQPGAGREDTPETPSAQPPSEEEQEQWQPWTQLRLSGHLKPLHYNLMLTAFMENFTFSGEVNVEIACRNATRYVVLHASRVAVEKVQVAEDRVAGAVPVAGFFLYPQTQVLVVVLNRTLDAQRNYNLKIIYNALIENELLGFFRSSYVLHGERRFLGVTQFSPTHARKAFPCFDEPIYKATFKISIKHQATYLSLSNMPVETSVFEEDGWVTDHFSQTPLMSTYYLAWAICNFTYRETTTKSGVVVRLYARPDAIRRGSGDYALHITKRLIEFYEDYFKVPYSLPKLDLLAVPKHPYAAMENWGLSIFVEQRILLDPSVSSISYLLDVTMVIVHEICHQWFGDLVTPVWWEDVWLKEGFAHYFEFVGTDYLYPGWNMEKQRFLTDVLHEVMLLDGLASSHPVSQEVLRATDIDRVFDWIAYKKGAALIRMLANFMGHSVFQRGLQDYLTIHKYGNAARNDLWNTLSEALKRNGKYVNIQEVMDQWTLQMGYPVITIFGNTTAENRIIITQQHFIYDISAKAKPHELQNSSYLWQIPLTIVVGNRSHVSSEAIIWVSNKTEHHRITSLNKGSWLLGNINQTGYFRVNYDLRNWRLLIDQLIRNHEVLSVSNRAGLIDDAFSLARAGYLPQNIPLEIIRYLSEEKDFLPWHAASRALYPLDKLLDRMEKYNVFNEYILKQVATTYIKLGWPKNNFNGSLVQASYQHEELRREVIMLACSFGNKHCHQQASTLISDWISSNRNRIPLNVRDIVYCTGVSLLDEDVWEFIWMKFHSTTAISEKKILLEALTCSDDRNLLNRLLNLSLNSEVVLDQDAIDVIIHVARNPHGRDLAWKFFRDKWKILNTRYGEALFMNSKLISGVTEFLNTEGELKELKNFMKSYDGVAAASFSRAVETVEANVRWKMLYQDELFQWLGKALRH
Vmax [4]: 0.11 U/mg
Vmax [5]: 2.63 U/mg
Vmax [6]: 0.67 U/mg
Vmax [7]: 1.64 U/mg
Vmax [8]: 2.19 U/mg
Vmax [9]: 4.43 U/mg
Km [10]: 3.1 µM
Km [11]: 35 µM
Km [12]: 15 µM
Km [13]: 55 µM
Km [14]: 34 µM
Km [15]: 311 µM

More lines, now with the values ahead:

Activity [1]: 0.14 U/mg
Molecule: CC(C)C[C@H](NC(=O)[C@@H]1CCC(=O)N1)C(=O)N1CCC[C@H]1C(N)=O ([pGlu]-Leu-Pro-NH2)

Activity [1]: 0.46 U/mg
Molecule: NCCCC[C@H](NC(=O)[C@@H]1CCC(=O)N1)C(=O)N1CCC[C@H]1C(N)=O ([pGlu]-Lys-Pro-NH2)

Activity [1]: 1.56 U/mg
Vmax/Km [2]: 0.03 U/mg/µM
Molecule: NC(=O)[C@@H]1CCCN1C(=O)[C@H](Cc1ccccc1)NC(=O)[C@@H]1CCC(=O)N1 ([pGlu]-Phe-Pro-NH2)

inhibition [3]: 3%
Molecule: NC(=O)[C@@H]1CCCN1C(=O)[C@@H]1CCCN1C(=O)[C@@H]1CCC(=O)N1 ([pGlu]-Pro-Pro-NH2)

Activity [1]: 0.05 U/mg
Molecule: NC(=O)[C@@H]1CCCN1C(=O)[C@H](CO)NC(=O)[C@@H]1CCC(=O)N1 ([pGlu]-Ser-Pro-NH2)

Activity [1]: 0.14 U/mg
Molecule: C[C@@H](O)[C@H](NC(=O)[C@@H]1CCC(=O)N1)C(=O)N1CCC[C@H]1C(N)=O ([pGlu]-Thr-Pro-NH2)

Activity [1]: 2.12 U/mg
Vmax/Km [2]: 0.06 U/mg/µM
Molecule: NC(=O)[C@@H]1CCCN1C(=O)[C@H](Cc1cccs1)NC(=O)[C@@H]1CCC(=O)N1 ([pGlu]-[2Thi]-Pro-NH2)

Activity [1]: 0.04 U/mg
Molecule: CCC[C@H](NC(=O)[C@@H]1CCC(=O)N1)C(=O)N1CCC[C@H]1C(N)=O ([pGlu]-[Nva]-Pro-NH2)

inhibition [3]: 57%
Molecule: NC(=O)[C@@H]1CCCN1C(=O)[C@@H](NC(=O)[C@@H]1CCC(=O)N1)c1ccccc1 ([pGlu]-[Phg]-Pro-NH2)
